Experimental data from article PMC2784364, “VX-166: a novel potent small molecule caspase inhibitor as a potential therapy for sepsis” (Critical Care, 2009).

Assays:
Jurkat cells [1] = test: Anti-Fas induced apoptosis in Jurkat cells, Annexin V; type: cell-based, human; conditions: Anti-Fas, Human Jurkat cell line/Annexin V, 18 hours, n = 4; read-out: IC50, inhibition of apoptosis
Method: (§1) Jurkat cells were obtained from LGC Standards (Teddington, UK) and were grown in RPMI 1640, 10% FCS, 2 mM L-glutamine, 100 U/ml penicillin and 0.1 mg/ml streptomycin (all from Sigma Aldrich Ltd., Poole, UK) at 37°C in 5% CO2/95% humidity. Receptor- or stress-mediated apoptosis (2 × 10^5 cells/ml) was induced by addition of either anti-Fas antibody CH-11 (10 ng/ml, Millipore UK Ltd., Watford, UK), TNF-α (20 ng/ml, R&D Systems, Abingdon, UK) with cycloheximide (112 ng/ml, Sigma Aldrich Ltd., Poole, UK) or staurosporine (350 ng/ml, Sigma Aldrich Ltd., Poole, UK). VX-166 was diluted into DMSO (10 mM), further diluted in media and added at a range of concentrations. Cells were then incubated for 18 hours. Apoptotic cells were then labelled with Cy5-conjugated Annexin-V (BD Biosciences, Oxford, UK) and detected using a FMAT™ 8100 Fluorimetric Microassay Technology Reader (Applied Biosystems, Warrington, UK). For the experiments using anti-Fas antibody, apoptosis was additionally measured using a Cell Death Detection ELISA kit (Roche Diagnostics Ltd., Lewes, UK) following the manufacturer's instructions.

Jurkat cells [2] = test: Anti-Fas induced apoptosis in Jurkat cells, DNA fragmentation (Cell Death Detection ELISA); type: cell-based; conditions: Human Jurkat cell line/DNA fragmentation, n = 4, read-out: IC50, inhibition of apoptosis
Method: as §1

[3] = tested on: human aorta endothelial cells (HAEC); test: Apoptosis assay in human aorta endothelial cells, serum withdrawal, DNA fragmentation; type: cell-based; conditions: Endothelial cell, Serum withdrawal and nutrient deprivation, 48 hours, n = 4, read-out: IC50, inhibition of apoptosis
Method: Human aorta endothelial cells (HAEC) were purchased from Cambrex Bio Science Wokingham Ltd., (Wokingham, UK) and cultured as recommended by the supplier. Apoptosis was induced in 5 × 10^4 cells/ml by addition of medium deprived of serum and growth factors. VX-166 was added at a range of concentrations as described above and the cells incubated for 48 hours at 37°C in an atmosphere of 5% CO2/95% humidity. Apoptosis was measured using a Cell Death Detection ELISA kit (Roche Diagnostics Ltd., Lewes, UK) following the manufacturer's instructions.

Q: Which results are given for `CCC(C(=O)NC(CC(=O)O)C(=O)COc1c(F)c(F)cc(F)c1F)n1cccc(NC(=O)OC)c1=O` (stereo not drawn) [VX-166]?
A: IC50 (Jurkat cells [1]): 27 ± 9 nM; IC50 (Jurkat cells [2]): 45 ± 7 nM; IC50 [3]: 310 ± 70 nM
